Assay [1] in a line: DRUGMATRIX: Calcium Channel Type L, Dihydropyridine radioligand binding (ligand: [3H] Nitrendipine). The following applies: Not Active = under 50% inhibition at 10 µM. The class given is cell membranes, Rattus norvegicus, Wistar, Cerebral cortex, Membrane.
Assay [2] addresses Matrix metalloproteinase-9 (Homo sapiens, UniProt P14780). The class given is cell-based.
Assay [3] addresses T1, Alpha-1A adrenergic receptor (Rattus norvegicus, UniProt P43140).
T1 sequence (P43140 whole entry): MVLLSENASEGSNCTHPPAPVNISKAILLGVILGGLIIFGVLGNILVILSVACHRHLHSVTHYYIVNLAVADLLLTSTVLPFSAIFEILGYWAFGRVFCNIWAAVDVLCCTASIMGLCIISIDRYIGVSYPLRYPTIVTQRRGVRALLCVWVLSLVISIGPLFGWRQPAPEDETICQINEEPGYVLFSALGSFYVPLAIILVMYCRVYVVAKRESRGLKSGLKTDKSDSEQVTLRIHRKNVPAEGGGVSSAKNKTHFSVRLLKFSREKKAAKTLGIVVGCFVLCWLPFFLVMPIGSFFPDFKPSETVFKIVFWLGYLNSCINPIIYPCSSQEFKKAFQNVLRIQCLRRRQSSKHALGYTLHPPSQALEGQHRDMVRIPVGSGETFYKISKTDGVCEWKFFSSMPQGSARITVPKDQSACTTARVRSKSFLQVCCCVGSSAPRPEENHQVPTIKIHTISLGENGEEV
In words: DRUGMATRIX: Alpha-1A adrenergic receptor radioligand binding (ligand: prazosin). Format: cell membranes, Wistar, Submaxillary gland, Membrane. Conditions: Not Active = under 50% inhibition at 10 µM.

Assay [4] concerns the target Platelet-activating factor receptor (Homo sapiens, UniProt P25105). Format: tissue-based. Note: in other assays of this panel Not Active means under 50% inhibition at 10 µM.
Assay [5] deals with T2, Muscarinic acetylcholine receptor M2 (Homo sapiens, UniProt P08172).
T2 sequence (P08172 whole entry): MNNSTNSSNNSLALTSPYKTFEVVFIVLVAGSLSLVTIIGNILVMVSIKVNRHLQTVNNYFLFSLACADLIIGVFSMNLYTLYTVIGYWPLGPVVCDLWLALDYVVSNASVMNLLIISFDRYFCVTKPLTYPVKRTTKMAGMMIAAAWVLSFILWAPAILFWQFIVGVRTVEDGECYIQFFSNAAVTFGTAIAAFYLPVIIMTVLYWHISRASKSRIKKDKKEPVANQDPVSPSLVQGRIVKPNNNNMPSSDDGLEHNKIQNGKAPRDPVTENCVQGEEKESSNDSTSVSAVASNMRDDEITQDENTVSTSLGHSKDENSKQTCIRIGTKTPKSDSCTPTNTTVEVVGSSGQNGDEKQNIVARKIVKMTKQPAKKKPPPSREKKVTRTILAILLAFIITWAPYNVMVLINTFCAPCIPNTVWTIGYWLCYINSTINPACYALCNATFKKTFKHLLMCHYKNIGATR
The class given is cell membranes, CHO-K1, Membrane.

In assay [6] the target is C-C chemokine receptor type 5 (Homo sapiens, UniProt P51681). The class given is cell membranes, Membrane. Conditions: hek293. Note: in other assays of this panel Not Active means under 50% inhibition at 10 µM.
Another assay has as its target T3, Calcitonin receptor (Homo sapiens, UniProt P30988). Note: in other assays of this panel Not Active means under 50% inhibition at 10 µM.
T3 sequence (P30988 whole entry): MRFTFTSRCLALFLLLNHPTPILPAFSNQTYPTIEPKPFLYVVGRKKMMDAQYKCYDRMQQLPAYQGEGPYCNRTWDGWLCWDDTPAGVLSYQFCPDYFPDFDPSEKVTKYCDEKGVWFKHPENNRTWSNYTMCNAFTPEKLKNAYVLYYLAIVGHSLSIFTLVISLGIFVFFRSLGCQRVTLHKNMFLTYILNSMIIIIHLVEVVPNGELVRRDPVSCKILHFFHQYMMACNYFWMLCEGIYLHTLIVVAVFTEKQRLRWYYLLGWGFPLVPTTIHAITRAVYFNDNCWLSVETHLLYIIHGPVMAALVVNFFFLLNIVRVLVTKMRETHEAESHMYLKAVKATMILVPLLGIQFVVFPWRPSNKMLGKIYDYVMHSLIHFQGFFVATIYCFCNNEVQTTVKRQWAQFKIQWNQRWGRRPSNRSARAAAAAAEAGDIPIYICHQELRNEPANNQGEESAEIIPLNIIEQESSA
The class given is cell membranes, Membrane. The following applies: t47d.

Chain of Platelet-activating factor receptor (P25105 whole entry): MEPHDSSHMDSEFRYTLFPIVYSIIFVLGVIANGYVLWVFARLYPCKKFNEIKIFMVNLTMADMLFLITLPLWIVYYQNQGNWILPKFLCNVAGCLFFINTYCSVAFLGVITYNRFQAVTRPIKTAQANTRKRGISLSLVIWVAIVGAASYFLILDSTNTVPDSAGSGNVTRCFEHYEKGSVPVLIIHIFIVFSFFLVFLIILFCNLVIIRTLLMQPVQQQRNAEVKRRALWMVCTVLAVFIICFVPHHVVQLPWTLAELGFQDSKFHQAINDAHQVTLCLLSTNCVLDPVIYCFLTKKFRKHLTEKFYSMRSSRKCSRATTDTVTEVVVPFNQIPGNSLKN
Chain of C-C chemokine receptor type 5 (P51681 whole entry): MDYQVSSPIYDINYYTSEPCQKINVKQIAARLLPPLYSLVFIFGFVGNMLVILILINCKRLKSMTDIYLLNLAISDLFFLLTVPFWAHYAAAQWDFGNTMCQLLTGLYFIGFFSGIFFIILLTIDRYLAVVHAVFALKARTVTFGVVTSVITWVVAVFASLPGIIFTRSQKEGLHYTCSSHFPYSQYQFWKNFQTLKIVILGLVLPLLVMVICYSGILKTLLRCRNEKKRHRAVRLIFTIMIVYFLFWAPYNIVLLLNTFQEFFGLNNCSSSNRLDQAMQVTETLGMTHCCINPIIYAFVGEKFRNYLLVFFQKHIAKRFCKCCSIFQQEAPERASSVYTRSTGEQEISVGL
Chain of Matrix metalloproteinase-9 (P14780 whole entry): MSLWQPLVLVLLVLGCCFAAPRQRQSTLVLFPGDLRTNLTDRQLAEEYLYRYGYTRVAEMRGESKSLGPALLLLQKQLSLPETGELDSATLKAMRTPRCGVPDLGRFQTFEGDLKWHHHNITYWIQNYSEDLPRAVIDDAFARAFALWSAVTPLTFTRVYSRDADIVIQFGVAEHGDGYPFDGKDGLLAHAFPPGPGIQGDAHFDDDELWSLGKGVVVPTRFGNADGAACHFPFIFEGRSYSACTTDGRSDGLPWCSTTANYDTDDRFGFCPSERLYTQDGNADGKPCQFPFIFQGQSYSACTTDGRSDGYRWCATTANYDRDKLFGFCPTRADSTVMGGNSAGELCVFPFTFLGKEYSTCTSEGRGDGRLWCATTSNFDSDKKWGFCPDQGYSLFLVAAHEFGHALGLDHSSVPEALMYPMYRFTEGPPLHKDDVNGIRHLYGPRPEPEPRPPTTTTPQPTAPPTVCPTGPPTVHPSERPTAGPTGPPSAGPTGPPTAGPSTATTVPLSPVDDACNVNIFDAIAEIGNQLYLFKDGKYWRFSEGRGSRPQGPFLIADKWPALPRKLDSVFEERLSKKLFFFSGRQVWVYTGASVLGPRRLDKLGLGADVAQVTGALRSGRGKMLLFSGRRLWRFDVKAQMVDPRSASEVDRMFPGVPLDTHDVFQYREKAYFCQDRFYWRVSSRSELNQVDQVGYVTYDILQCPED

As for `CN1CCCC(CN2c3ccccc3Sc3ccccc32)C1` (stereo unspecified) [MEPAZINE], the IC50 result is “Not Active” in assay [1]; “Not Active” in assay [2]; 144 nM in assay [3] (read-out: IC50); “Not Active” in assay [4]; 565 nM in assay [5] (read-out: IC50); “Not Active” in assay [6]. Further, at Calcitonin receptor, the IC50 entry is recorded as “Not Active”. Also, the values for the Ki result in assay [1], in assay [3] (read-out: Ki) and in assay [5] (read-out: Ki) were “Not Active”, 58 nM and 201 nM, respectively.
As to `Cc1cccc(C)c1NC(=O)C1CCCCN1C` (stereo unspecified) [MEPIVACAINE], the IC50 entry in assay [1], in assay [2], in assay [3], in assay [4], in assay [5] (cho-k1) and in assay [6] was “Not Active” throughout. For the same compound, the IC50 entry at Calcitonin receptor was “Not Active”. For the same compound, the Ki result in assay [1] is reported as “Not Active”.
For `CN(C)C(=N)NC(=N)N` [METFORMIN], the IC50 entry in assay [1], in assay [2], in assay [3], in assay [4], in assay [5] (cho-k1) and in assay [6] was “Not Active” throughout. The half-inhibitory concentration (IC50) entry on Calcitonin receptor is reported as “Not Active”. Also, in assay [1], the Ki entry is listed as “Not Active”.
Turning to `CC(C)(C)NCC(O)COc1cccc2c1CC(O)C(O)C2` (stereo unspecified) [NADOLOL], the half-inhibitory concentration (IC50) entry in assay [1], in assay [2], in assay [3], in assay [4], in assay [5] (cho-k1) and in assay [6] was “Not Active” throughout. For the same compound, the concentration for half-maximal inhibition (IC50) entry on Calcitonin receptor is listed as “Not Active”. Moreover, in assay [1], the Ki entry is reported as “Not Active”.
Turning to `C[C@]12CC[C@H]3[C@@H](CCC4=CC(=O)CC[C@@H]43)[C@@H]1CC[C@@H]2O` [NANDROLONE], the IC50 result in assay [1], in assay [2], in assay [3], in assay [4], in assay [5] (cho-k1) and in assay [6] was “Not Active” each time. Further, the concentration for half-maximal inhibition (IC50) result on Calcitonin receptor was “Not Active”. The inhibition constant Ki entry in assay [1] was “Not Active”.
For the compound `C[C@@H]1C/C=C/C=C/C=C/C=C/[C@H](O[C@@H]2O[C@H](C)[C@@H](O)[C@H](N)[C@@H]2O)C[C@@H]2O[C@](O)(C[C@@H](O)C[C@H]3O[C@@H]3/C=C/C(=O)O1)C[C@H](O)[C@H]2C(=O)O` [NATAMYCIN], the half-maximal inhibitory concentration (IC50) entry in assay [1], in assay [2], in assay [3], in assay [4], in assay [5] (cho-k1) and in assay [6] was “Not Active” in each case. Further, the 50% inhibitory concentration (IC50) entry on Calcitonin receptor was “Not Active”. For the same compound, the inhibition constant Ki entry in assay [1] is “Not Active”.
As for `CN(C)C(=O)Oc1cccc([N+](C)(C)C)c1.[Br-]` [NEOSTIGMINE BROMIDE], the IC50 entry in assay [1], in assay [2], in assay [3], in assay [4], in assay [5] (cho-k1) and in assay [6] was “Not Active” each time. Further, at Calcitonin receptor, the concentration for half-maximal inhibition (IC50) entry is “Not Active”. In assay [1], the inhibition constant (Ki) result is “Not Active”.
Take `NC(=O)c1cccnc1` [NIACINAMIDE]: the IC50 result in assay [1], in assay [2], in assay [3], in assay [4], in assay [5] (cho-k1) and in assay [6] was “Not Active” in each case. The half-maximal inhibitory concentration (IC50) entry on Calcitonin receptor is listed as “Not Active”. In addition, the Ki result in assay [1] is given as “Not Active”.
`CS(=O)(=O)Nc1ccc([N+](=O)[O-])cc1Oc1ccccc1` [NIMESULIDE]: the IC50 entry in assay [1], in assay [2], in assay [3], in assay [4], in assay [5] (cho-k1) and in assay [6] was “Not Active” throughout. In addition, the half-inhibitory concentration (IC50) result on Calcitonin receptor is “Not Active”. Besides, the inhibitory constant (Ki) entry in assay [1] is “Not Active”.
Consider `CN1C(=O)CN=C(c2ccccc2)c2cc([N+](=O)[O-])ccc21` [NIMETAZEPAM], for which the concentration for half-maximal inhibition (IC50) entry in assay [1], in assay [2], in assay [3], in assay [4], in assay [5] (cho-k1) and in assay [6] was “Not Active” throughout. Further, at Calcitonin receptor, the half-inhibitory concentration (IC50) result is reported as “Not Active”. In addition, the inhibition constant Ki result in assay [1] is given as “Not Active”.
On to `COc1ccc2c(c1OC)C(=O)O[C@@H]2[C@H]1c2c(cc3c(c2OC)OCO3)CCN1C` [NOSCAPINE], for which the IC50 result in assay [1], in assay [2], in assay [3], in assay [4], in assay [5] (cho-k1) and in assay [6] was “Not Active” each time. In addition, the IC50 result on Calcitonin receptor is recorded as “Not Active”. For the same compound, the inhibition constant (Ki) result in assay [1] was “Not Active”.
Consider `C[C@@H]1O[C@@H](O[C@H]2C[C@@H](O)[C@]3(CO)[C@H]4[C@H](O)C[C@]5(C)[C@@H](C6=CC(=O)OC6)CC[C@]5(O)[C@@H]4CC[C@]3(O)C2)[C@H](O)[C@H](O)[C@H]1O` [OUABAIN], for which the 50% inhibitory concentration (IC50) result in assay [1], in assay [2], in assay [3], in assay [4], in assay [5] (cho-k1) and in assay [6] was “Not Active” in each case. Also, the IC50 entry at Calcitonin receptor is on record as “Not Active”. The Ki result in assay [1] is on record as “Not Active”.
Regarding `NC(=O)N1c2ccccc2CC(=O)c2ccccc21` [OXCARBAZEPINE], the concentration for half-maximal inhibition (IC50) entry in assay [1], in assay [2], in assay [3], in assay [4], in assay [5] (cho-k1) and in assay [6] was “Not Active” in each case. Also, the IC50 entry at Calcitonin receptor was “Not Active”. Besides, the inhibition constant Ki entry in assay [1] was “Not Active”.
For `COc1ccnc(C[S+]([O-])c2nc3ccc(OC(F)F)cc3[nH]2)c1OC` (stereo unspecified) [PANTOPRAZOLE], the 50% inhibitory concentration (IC50) entry in assay [1], in assay [2], in assay [3], in assay [4], in assay [5] (cho-k1) and in assay [6] was “Not Active” in each case. Besides, the IC50 entry at Calcitonin receptor is “Not Active”. Besides, the Ki result in assay [1] is “Not Active”.
For `NNCCc1ccccc1` [PHENELZINE], the half-maximal inhibitory concentration (IC50) result in assay [1], in assay [2], in assay [3], in assay [4], in assay [5] (cho-k1) and in assay [6] was “Not Active” each time. For the same compound, the IC50 result on Calcitonin receptor is “Not Active”. The Ki result in assay [1] is given as “Not Active”.
As for `CCc1ccc(CCOc2ccc(CC3SC(=O)NC3=O)cc2)nc1` (stereo unspecified) [PIOGLITAZONE], the IC50 result in assay [1], in assay [2], in assay [3], in assay [4], in assay [5] (cho-k1) and in assay [6] was “Not Active” each time. At Calcitonin receptor, the IC50 result is “Not Active”. For the same compound, the inhibitory constant (Ki) entry in assay [1] is given as “Not Active”.
As to `CCCNC(C)C(=O)Nc1ccccc1C` (stereo unspecified) [PRILOCAINE], the IC50 entry in assay [1], in assay [2], in assay [3], in assay [4], in assay [5] (cho-k1) and in assay [6] was “Not Active” each time. Moreover, the concentration for half-maximal inhibition (IC50) result on Calcitonin receptor is listed as “Not Active”. Also, in assay [1], the inhibition constant (Ki) result was “Not Active”.
`CCN(CC)CCNC(=O)c1ccc(N)cc1` [PROCAINAMIDE]: the half-inhibitory concentration (IC50) entry in assay [1], in assay [2], in assay [3], in assay [4], in assay [5] (cho-k1) and in assay [6] was “Not Active” in each case. Besides, at Calcitonin receptor, the IC50 entry is reported as “Not Active”. For the same compound, the Ki entry in assay [1] is “Not Active”.

A word on the IC50: it is the point on the concentration scale where inhibition reaches its midpoint. One may read the Ki as a dissociation constant, usually derived from enzyme kinetics or from competition with a known ligand.

For the origin of these results see ChEMBL document CHEMBL1909046, “DrugMatrix in vitro pharmacology data”.
